Results on one compound are retold here after ChEMBL document CHEMBL1147222, “Lowdenic acid: a new antifungal polyketide-derived metabolite from a new fungicolous Verticillium sp” (2003).

Common to all, as to format: functional
Test [1] relates to Aspergillus flavus. The test is described as follows: Antifungal activity against Aspergillus flavus NRRL 6541 at 250 ug/disk. The following applies: read-out: IZ.
For test [2], the system named is Aspergillus flavus. The test can be described thus: Antifungal activity against Aspergillus flavus NRRL 6541.
For the next test, the system named is Candida albicans. The test is described as follows: Antifungal activity against Candida albicans ATCC 90029 at 200 ug/disk by standard disk assay. The following applies: read-out: IZ.
Another test concerns Staphylococcus aureus. The test can be described thus: Antibacterial activity against Staphylococcus aureus ATCC 29213 at 200 ug/disk by standard disk assay. The following applies: read-out: IZ.
A further test has as its system Bacillus subtilis. The test can be described thus: Antibacterial activity against Bacillus subtilis ATCC 6051 at 200 ug/disk by standard disk assay. The following applies: read-out: IZ.

Values after ≈ are worked out from the molar mass of the structure shown.

With `CCCCCCCCCC[C@@H](C)CCC[C@@]1(C)C=C/C(=C2/C(=O)O[C@H](CC(=O)O)C2=O)O1` [LOWDENIC ACID], the zone of inhibition at 250 µg/disc with Aspergillus flavus [1] stood at 14 mm. For the same compound, the MIC in the test on Aspergillus flavus [2] is 6 µg/mL (≈ 13.4 µM). Moreover, the figures for the zone of inhibition at 200 µg/disc in the test on Candida albicans, with Staphylococcus aureus and with Bacillus subtilis were 9 mm, 12 mm and 17 mm, respectively.
